According to ChEMBL document CHEMBL5625167, “In vitro bioevaluation and docking study of dihydrosphingosine and ethambutol analogues against sensitive and multi-drug resistant Mycobacterium tuberculosis” (Eur J Med Chem, 2023):
Converted amounts (≈) assume the structure as drawn. “And” between values parts separate entries of the source, which are not always exact repeats. Identical values can stand only once.

Key:
[1] = tested on: Mycobacterium tuberculosis; test: (§1) Antimycobacterial activity against isoniazid, rifampicin, ethambutol and pyrazinamide sensitive Mycobacterium tuberculosis H37Rv ATCC 25618 assessed as inhibition of bacterial growth incubated for 7 days by resazurin dye based colorimetric method analysis; format: functional; settings: H37Rv ATCC 25618, 168 h, time 7 day
[2] = tested on: Mycobacterium tuberculosis; test: as §1, with “Potency index, ratio of ethambutol MIC to test compound MIC for antimycobacterial” for “Antimycobacterial”; format: functional; settings: time 7 day
[3] = Cytotoxicity against African green monkey Vero cells assessed as reduction in cell population incubated for 48 hrs by MTT assay; format: toxicity, cell-based; settings: chlorocebus sabaeus
[4] = Cytotoxicity against mouse J774.A1 cells assessed as reduction in cell population incubated for 48 hrs by MTT assay; format: toxicity, cell-based
[5] = Cytotoxicity against human HepG2 cells assessed as reduction in cell population incubated for 48 hrs by MTT assay; format: toxicity, cell-based
[6] = tested on: Mycolicibacterium smegmatis; test: Antimycobacterial activity against Mycobacterium smegmatis ATCC607 incubated for 24 hrs by resazurin dye based broth microdilution method; format: functional
Staphylococcus aureus = test: Antibacterial activity against Staphylococcus aureus ATCC 25923 incubated for 18 hrs by resazurin dye based broth microdilution method; format: functional
Klebsiella pneumoniae = test: Antibacterial activity against Klebsiella pneumoniae ATCC 13883 incubated for 18 hrs by resazurin dye based broth microdilution method; format: functional
[7] = tested on: Mycobacterium tuberculosis; test: Antimycobacterial activity against Mycobacterium tuberculosis H37Rv ATCC 25618 assessed as fractional inhibitory concentration incubated for 7 days in presence of 2-aminoheptadecan-1-ol by resazurin dye based two-dimensional micro dilution checkerboard assay; format: functional; settings: time 7 day
[8] = tested on: Mycobacterium tuberculosis; test: Antimycobacterial activity against Mycobacterium tuberculosis H37Rv ATCC 25618 incubated for 7 days by resazurin dye based two-dimensional micro dilution checkerboard assay in presence of 1-(benzyloxy)heptadecan-2-amine; format: functional; settings: time 7 day
[9] = tested on: Mycobacterium tuberculosis; test: Antimycobacterial activity against Mycobacterium tuberculosis H37Rv ATCC 25618 incubated for 7 days by resazurin dye based two-dimensional micro dilution checkerboard assay in presence of 1-((3,4,5-trimethoxybenzyl)oxy)heptadecan-2-amine; format: functional; settings: time 7 day

SMILES	MIC [1]	Ratio [2]	CC50 at 48 h [3]	CC50 at 48 h [4]	CC50 at 48 h [5]	MIC [6]	MIC (Staphylococcus aureus)	MIC (Klebsiella pneumoniae)	FIC [7]	FIC [8]	FIC [9]
CCCCCCCCCCCCCCCC(CNCCCCCC)NC(=O)OC(C)(C)C (centres undefined)	8 µM (≈ 3.64 µg/mL)	45	22.9 µM	20.8 µM	86.8 µM	128 µM (≈ 58.2 µg/mL)	256 µM (≈ 116 µg/mL)	> 512 µM	–	–	–
CCCCCCCCCCCCCCCCCC(CN)NC(=O)OC(C)(C)C (centres undefined)	16 µM (≈ 6.38 µg/mL)	23	17.7 µM	30.5 µM	115 µM	8 µM (≈ 3.19 µg/mL)	16 µM (≈ 6.38 µg/mL)	> 512 µM	–	–	–
CCCCCCCCCCCCCCCCCC(N)COCc1ccccc1 (centres undefined)	64 µM (≈ 24.9 µg/mL)	6	138 µM	93.3 µM	–	> 512 µM	> 512 µM	> 512 µM	–	–	–
NCC[C@H](O)C(=O)N[C@@H]1C[C@H](N)[C@@H](O[C@H]2O[C@H](CN)[C@@H](O)[C@H](O)[C@H]2O)[C@H](O)[C@H]1O[C@H]1O[C@H](CO)[C@@H](O)[C@H](N)[C@H]1O [AMIKACIN]	0.1 µM and 0.08 µg/mL	–	–	–	–	1 µM (≈ 0.586 µg/mL)	–	–	0.063	0.25	0.5
CCCCCCCCCCCCCCCC(N)CNCC (centres undefined)	32 µM (≈ 9.55 µg/mL)	11	40.1 µM	25.6 µM	–	–	–	–	–	–	–
CCCCCCCCCCCCCCCCCCCC(CNCC)NC(=O)OC(C)(C)C (centres undefined)	4 µM (≈ 1.82 µg/mL)	90	33.7 µM	4.7 µM	158 µM	16 µM (≈ 7.28 µg/mL)	256 µM (≈ 116 µg/mL)	> 512 µM	–	–	–
CCCCCCCCCCCC(CNCC)NC(=O)OC(C)(C)C (centres undefined)	64 µM (≈ 21.9 µg/mL)	6	32.3 µM	20.9 µM	–	–	–	–	–	–	–
CCCCCCCCCCCCCCCCCC(CO)N(CC)CC (centres undefined)	> 64 µM	<5.6	85.5 µM	49.5 µM	–	> 512 µM	> 512 µM	> 512 µM	–	–	–
Cc1onc(-c2ccccc2)c1C(=O)N[C@@H]1C(=O)N2[C@@H]1SC(C)(C)[C@@H]2C(=O)O [OXACILLIN]	–	–	–	–	–	–	0.25 µM (≈ 0.1 µg/mL)	–	–	–	–
CCCCCCCCCCCCCCCC(CO)N(CC)CC (centres undefined)	4 µM (≈ 1.31 µg/mL)	90	25.1 µM	23.3 µM	–	–	–	–	–	–	–
CCCCCCCCCCCC(CO)N(CC)CC (centres undefined)	64 µM (≈ 17.4 µg/mL)	6	36.2 µM	17.6 µM	–	–	–	–	–	–	–
CCCCCCCCCCCCCCCCCCCC(COCc1ccccc1)NCC (centres undefined)	16 µM (≈ 7.13 µg/mL)	23	67.8 µM	52.3 µM	95.1 µM	128 µM (≈ 57.1 µg/mL)	> 512 µM	> 512 µM	–	–	–
CC(C)(O/N=C(\C(=O)N[C@@H]1C(=O)N2C(C(=O)[O-])=C(C[n+]3ccccc3)CS[C@H]12)c1csc(N)n1)C(=O)O [CEFTAZIDIME]	–	–	–	–	–	–	–	0.5 µM (≈ 0.273 µg/mL)	–	–	–
CCCCCCCCCCCCCCCCCC(CO)NCCCC (centres undefined)	32 µM (≈ 11.4 µg/mL)	11	148 µM	31.1 µM	–	512 µM (≈ 182 µg/mL)	512 µM (≈ 182 µg/mL)	> 512 µM	–	–	–
CCCCc1ccc(CCCCCCCCCC(CO)NC(=O)OC(C)(C)C)cc1 (centres undefined)	32 µM (≈ 13.4 µg/mL)	11	31 µM	15.8 µM	–	–	–	–	–	–	–
CCCCc1ccc(CCCCCCCC(N)CO)cc1 (centres undefined)	4 µM (≈ 1.17 µg/mL)	90	21.2 µM	10.6 µM	25.4 µM	–	–	–	–	–	–
CCCCCCCCCCCC(CO)NCC (centres undefined)	> 64 µM	>5.6	37.3 µM	10.5 µM	–	–	–	–	–	–	–
CCCCCCCCCCCCCCCC(CO)NCC (centres undefined)	16 µM (≈ 4.79 µg/mL)	23	27.7 µM	22.8 µM	–	–	–	–	–	–	–
CCCCCCCCCCCCCCCC(COCc1ccccc1)NCCCCCC (centres undefined)	64 µM (≈ 28.5 µg/mL)	6	54 µM	54.6 µM	–	–	–	–	–	–	–
CCCCCCCCCCCCCCCC(CO)NCCCC (centres undefined)	64 µM (≈ 21 µg/mL)	6	73.4 µM	23.7 µM	–	–	–	–	–	–	–
CCCCc1ccc(CCCCCC(CO)NC(=O)OC(C)(C)C)cc1 (centres undefined)	64 µM (≈ 23.3 µg/mL)	6	51.5 µM	14.2 µM	–	–	–	–	–	–	–
NNC(=O)c1ccncc1 [ISONIAZID]	0.91 µM and 0.13 µg/mL	–	–	–	–	–	–	–	0.5	0.5	0.5
